Reference: patent publication US11046709B2, “Fused 1,4-diazepines as BET bromodomain inhibitors” (THE REGENTS OF THE UNIVERSITY OF MICHIGAN, priority 2017, dated 2021)

What was measured:
recombinant BRD4 BD2 = molecular target: T1, recombinant BRD4 BD2 (Homo sapiens, UniProt O60885); test: Competitive fluorescence-polarization (FP) binding assay, BRD4 BD2; details: competitive FP, Table 6; read-out: IC50 as determinined in FP assays BRD4 BD2
T1 construct: for recombinant BRD4 BD1 and BRD4 BD2 proteins

recombinant BRD4 BD1 = molecular target: T2, recombinant BRD4 BD1 (Homo sapiens, UniProt O60885); test: Competitive fluorescence-polarization (FP) binding assay, BRD4 BD1; details: competitive FP, Table 6; read-out: IC50 as determinined in FP assays BRD4 BD1
T2 construct: for recombinant BRD4 BD1 and BRD4 BD2 proteins
Description: Fluorescence Polarization (FP) competitive binding studies were carried out using a FAM labeled fluorescent probe, see, e.g., Cpd. No. 350 of US 2014/0256706, to determine binding affinities of representative Compounds of the Disclosure for recombinant BRD4 BD1 and BRD4 BD2 proteins. Equilibrium dissociation constants (Kd) values of the fluorescent probe to BRD4 BD1 and BD2 proteins were determined from protein saturation experiments by monitoring the total fluorescence polarization of mixtures composed with the fluorescent probe at a fixed concentration and proteins with increasing concentrations up to full saturation. Serial dilutions of testing proteins were mixed with the fluorescent probe to a final volume of 200 μl in the assay buffer (100 mM phosphate buffer, pH=6.5, 0.01% Triton X-100 (Sigma, 282103) being added right before assays). Final fluorescent probe concentration was 1.5 nM for both proteins. Plates were incubated at room temperature for 30 minutes with gentle shaking to assure equilibrium. FP values in millipolarization units (mP) were measured using the Infinite M-1000 plate reader (Tecan U.S., Research Triangle Park, N.C.) in Microfluor 1 96-well, black, round-bottom plates (Thermo Scientific, Waltham, Mass.) at an excitation wavelength of 485 nm and an emission wavelength of 530 nm. Kd values of the fluorescent probe, which were calculated by fitting the sigmoidal dose-dependent FP increases as a function of protein concentrations using Graphpad Prism 6.0 software (Graphpad Software, San Diego, Calif.), are 5.5 and 3.0 nM to BDR4 BD1 and 2, respectively.
The IC50 and Ki values of compounds were determined in a competitive binding experiment. See US 2014/0256706. Mixtures of 10 μl of the tested compounds in assay buffer with 40% Ethylene Glycol and 190 μl of preincubated protein/probe complex solution in the assay buffer (100 mM potassium phosphate, pH 6.5, 0.01% Triton X-100) were added into assay plates which were incubated at room temperature for 30 minutes with gentle shaking. Final concentrations of proteins were 10 and 6 nM in assays for BRD4 BD1 and BD2, respectively. Final probe concentration is 1.5 nM in both assays. Negative controls containing protein/probe complex only (equivalent to 0% inhibition), and positive controls containing only free probes (equivalent to 100% inhibition), were included in each assay plate. FP values were measured as described above. IC50 values were determined by nonlinear regression fitting of the competition curves. Instead of being calculated from IC50 values as described before. Ki values of competitive inhibitors were obtained directly by nonlinear regression fitting as well, based upon the Kd values of the probe to different proteins, and concentrations of the proteins and probes in the competitive assays (US 2014/0256706; Wang, FEBS Lett. 360:111 (1995); Zhang et al., Analytical Biochemistry, 331:138 (2004)).
Representative compounds in Table 5 were evaluated for their binding affinities to BRD4 BD1 and BD2 proteins using the Competitive Fluorescence-Polarization (FP) Assays described in Example 6, with the data included in Table 6.

MDA-MB-231 = test: Cell growth inhibition, 4-day proliferation assay, MDA-MB-231; format: cell-based; details: Homo sapiens, MDA-MB-231; WST-8 assay, Table 7; read-out: Cell growth inhibition (IC50 (nM)) MDA-MB-231
How it was run: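 WST-8 colorimetric read-out (absorbance 450 nm after 1-2 h) after 4-day compound exposure of 3,000-10,000 cells/well at 37 °C; IC50 from variable-slope sigmoid fit of DMSO-normalized signal.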

MOLM-13 = test: Cell growth inhibition, 4-day proliferation assay, MOLM-13; format: cell-based; details: Homo sapiens, MOLM-13, WST-8 assay, Table 7; read-out: Cell growth inhibition (IC50 (nM)) MOLM-13

## CC(=O)NNC(=O)C[C@@H]1N=C(c2ccc(Cl)cc2)c2c(sc(C#Cc3ccccn3)c2C)-n2c(C)nnc21 [Compound 128, (S)—N′-acetyl-2-(4-(4-chlorophenyl)-3,9-dimethyl-2-(pyridin-2-ylethynyl)-6H-thieno[3,2-f][1,2,4]triazolo[4,3-a][1,4]diazepin-6-yl)acetohydrazide]
Recombinant BRD4 BD2
  IC50: 12.8 nM
Recombinant BRD4 BD1
  IC50: 21.7 nM
MDA-MB-231
  IC50: 202 nM
MOLM-13
  IC50: 42.6 nM

## Cc1c(C#Cc2ccccn2)sc2c1C(c1ccc(Cl)cc1)=N[C@@H](CC(=O)N1CCC(F)(F)CC1)c1nnc(C)n1-2 [Compound 132, (S)-2-(4-(4-chlorophenyl)-3,9-dimethyl-2-(pyridin-2-ylethynyl)-6H-thieno[3,2-f][1,2,4]triazolo[4,3-a][1,4]diazepin-6-yl)-1-(4,4-difluoropiperidin-1-yl)ethan-1-one]
Recombinant BRD4 BD2
  IC50: 33.5 nM
Recombinant BRD4 BD1
  IC50: 22.4 nM
MDA-MB-231
  IC50: 91.9 nM
MOLM-13
  IC50: 80 to 160 nM

## Cc1c(C#Cc2ccccn2)sc2c1C(c1ccc(Cl)cc1)=N[C@@H](CC(=O)N1CC(F)(F)C1)c1nnc(C)n1-2 [Compound 127, (S)-2-(4-(4-chlorophenyl)-3,9-dimethyl-2-(pyridin-2-ylethynyl)-6H-thieno[3,2-f][1,2,4]triazolo[4,3-a][1,4]diazepin-6-yl)-1-(3,3-difluoroazetidin-1-yl)ethan-1-one]
Recombinant BRD4 BD2
  IC50: 79 nM
Recombinant BRD4 BD1
  IC50: 25.9 nM
MDA-MB-231
  IC50: 47 nM
MOLM-13
  IC50: 57 nM

## Cc1c(C#Cc2ccccn2)sc2c1C(c1ccc(Cl)cc1)=N[C@@H](Cc1nnc(C3CC3)o1)c1nnc(C)n1-2 [Compound 136, (S)-2-((4-(4-chlorophenyl)-3,9-dimethyl-2-(pyridin-2-ylethynyl)-6H-thieno[3,2-f][1,2,4]triazolo[4,3-a][1,4]diazepin-6-yl)methyl)-5-cyclopropyl-1,3,4-oxadiazole]
Recombinant BRD4 BD2
  IC50: 60.1 nM
Recombinant BRD4 BD1
  IC50: 11.3 nM
MDA-MB-231
  IC50: 52.1 nM
MOLM-13
  IC50: 28.1 nM

## Cc1c(C#Cc2ccccn2)sc2c1C(c1ccc(Cl)cc1)=N[C@@H](CC(C)C)c1nnc(C)n1-2 [Compound 105, (S)-4-(4-chlorophenyl)-6-isobutyl-3,9-dimethyl-2-(pyridin-2-ylethynyl)-6H-thieno[3,2-f][1,2,4]triazolo[4,3-a][1,4]diazepine]
Recombinant BRD4 BD2
  IC50: 26.5 nM
Recombinant BRD4 BD1
  IC50: 33.9 nM
MDA-MB-231
  IC50: 400 ± 200 nM
MOLM-13
  IC50: 348 nM

## Cc1c(C#Cc2cccnc2)sc2c1C(c1ccc(Cl)cc1)=N[C@@H](CC(=O)N1CCN(C)CC1)c1nnc(C)n1-2 [Compound 115, (S)-2-(4-(4-chlorophenyl)-3,9-dimethyl-2-(pyridin-3-ylethynyl)-6H-thieno[3,2-f][1,2,4]triazolo[4,3-a][1,4]diazepin-6-yl)-1-(4-methylpiperazin-1-yl)ethan-1-one]
Recombinant BRD4 BD2
  IC50: 6.3 nM
Recombinant BRD4 BD1
  IC50: 9.6 nM
MDA-MB-231
  IC50: 65.1 nM
MOLM-13
  IC50: 21.9 nM

## Cc1c(C#Cc2cccnc2)sc2c1C(c1ccc(Cl)cc1)=N[C@@H](CC(=O)N1CCOCC1)c1nnc(C)n1-2 [Compound 118, (S)-2-(4-(4-chlorophenyl)-3,9-dimethyl-2-(pyridin-3-ylethynyl)-6H-thieno[3,2-f][1,2,4]triazolo[4,3-a][1,4]diazepin-6-yl)-1-morpholinoethan-1-one]
Recombinant BRD4 BD2
  IC50: 27.7 nM
Recombinant BRD4 BD1
  IC50: 6.1 nM
MDA-MB-231
  IC50: 103 nM
MOLM-13
  IC50: 9.2 nM

## Cc1c(C#Cc2ccccn2)sc2c1C(c1ccc(Cl)cc1)=N[C@@H](Cc1nnc(C(C)C)o1)c1nnc(C)n1-2 [Compound 135, (S)-2-((4-(4-chlorophenyl)-3,9-dimethyl-2-(pyridin-2-ylethynyl)-6H-thieno[3,2-f][1,2,4]triazolo[4,3-a][1,4]diazepin-6-yl)methyl)-5-isopropyl-1,3,4-oxadiazole]
Recombinant BRD4 BD2
  IC50: 45 nM
Recombinant BRD4 BD1
  IC50: 10 nM
MDA-MB-231
  IC50: 24.5 nM
MOLM-13
  IC50: 13.8 nM

## Cc1c(C#Cc2cccnc2)sc2c1C(c1ccc(Cl)cc1)=N[C@@H](CC(=O)OC(C)(C)C)c1nnc(C)n1-2 [Compound 111, tert-butyl (S)-2-(4-(4-chlorophenyl)-3,9-dimethyl-2-(pyridin-3-ylethynyl)-6H-thieno[3,2-f][1,2,4]triazolo[4,3-a][1,4]diazepin-6-yl)acetate]
Recombinant BRD4 BD2
  IC50: 17 nM
Recombinant BRD4 BD1
  IC50: 4.8 nM
MDA-MB-231
  IC50: 98.6 nM
MOLM-13
  IC50: 32.7 nM

## Cc1nnc(C[C@@H]2N=C(c3ccc(Cl)cc3)c3c(sc(C#Cc4ccccn4)c3C)-n3c(C)nnc32)s1 [Compound 134, (S)-4-(4-chlorophenyl)-3,9-dimethyl-6-((5-methyl-1,3,4-thiadiazol-2-yl)methyl)-2-(pyridin-2-ylethynyl)-6H-thieno[3,2-f][1,2,4]triazolo[4,3-a][1,4]diazepine]
Recombinant BRD4 BD2
  IC50: 59.2 nM
Recombinant BRD4 BD1
  IC50: 7.88 nM
MDA-MB-231
  IC50: 85.2 nM
MOLM-13
  IC50: 11.9 nM

## Cc1c(C#Cc2cccnc2)sc2c1C(c1ccc(Cl)cc1)=N[C@@H](CC(N)=O)c1nnc(C)n1-2 [Compound 113, (S)-2-(4-(4-chlorophenyl)-3,9-dimethyl-2-(pyridin-3-ylethynyl)-6H-thieno[3,2-f][1,2,4]triazolo[4,3-a][1,4]diazepin-6-yl)acetamide]
Recombinant BRD4 BD2
  IC50: 11.4 nM
Recombinant BRD4 BD1
  IC50: 4.1 nM
MDA-MB-231
  IC50: 23.9 nM
MOLM-13
  IC50: 2.7 nM

## Cc1c(C#Cc2ccc(N)nc2)sc2c1C(c1ccc(Cl)cc1)=N[C@@H](CC(=O)N1CCN(C)CC1)c1nnc(C)n1-2 [Compound 120, (S)-2-(2-((6-aminopyridin-3-yl)ethynyl)-4-(4-chlorophenyl)-3,9-dimethyl-6H-thieno[3,2-f][1,2,4]triazolo[4,3-a][1,4]diazepin-6-yl)-1-(4-methylpiperazin-1-yl)ethan-1-one]
Recombinant BRD4 BD2
  IC50: 4.9 nM
Recombinant BRD4 BD1
  IC50: 5.3 nM
MDA-MB-231
  IC50: 9.74 nM
MOLM-13
  IC50: 9.64 nM

## Cc1c(C#Cc2ccccn2)sc2c1C(c1ccc(Cl)cc1)=N[C@@H](CC(=O)NC1CCNCC1)c1nnc(C)n1-2 [Compound 131, (S)-2-(4-(4-chlorophenyl)-3,9-dimethyl-2-(pyridin-2-ylethynyl)-6H-thieno[3,2-f][1,2,4]triazolo[4,3-a][1,4]diazepin-6-yl)-N-(piperidin-4-yl)acetamide]
Recombinant BRD4 BD2
  IC50: 26.9 nM
Recombinant BRD4 BD1
  IC50: 12.6 nM
MDA-MB-231
  IC50: 243 nM
MOLM-13
  IC50: 188 nM

## Cc1c(C#Cc2cccnc2)sc2c1C(c1ccc(Cl)cc1)=N[C@@H](CC(=O)N1CCNCC1)c1nnc(C)n1-2 [Compound 116, (S)-2-(4-(4-chlorophenyl)-3,9-dimethyl-2-(pyridin-3-ylethynyl)-6H-thieno[3,2-f][1,2,4]triazolo[4,3-a][1,4]diazepin-6-yl)-1-(piperazin-1-yl)ethan-1-one]
Recombinant BRD4 BD2
  IC50: 122 nM
Recombinant BRD4 BD1
  IC50: 10.4 nM
MDA-MB-231
  IC50: 45.3 nM
MOLM-13
  IC50: 17.3 nM

## Cc1c(C#Cc2ccccn2)sc2c1C(c1ccc(Cl)cc1)=N[C@@H](CC(=O)N1CCNCC1)c1nnc(C)n1-2 [Compound 122, (S)-2-(4-(4-chlorophenyl)-3,9-dimethyl-2-(pyridin-2-ylethynyl)-6H-thieno[3,2-f][1,2,4]triazolo[4,3-a][1,4]diazepin-6-yl)-1-(piperazin-1-yl)ethan-1-one]
Recombinant BRD4 BD2
  IC50: 34.6 nM
Recombinant BRD4 BD1
  IC50: 14.2 nM
MDA-MB-231
  IC50: 19.4 nM
MOLM-13
  IC50: 15.3 nM

## CNC(=O)CCn1cc(C#Cc2sc3c(c2C)C(c2ccc(Cl)cc2)=N[C@@H](C)c2nnc(C)n2-3)cn1 [Compound 104, (S)-3-(4-((4-(4-chlorophenyl)-3,6,9-trimethyl-6H-thieno[3,2-f][1,2,4]triazolo[4,3-a][1,4]diazepin-2-yl)ethynyl)-1H-pyrazol-1-yl)-N-methylpropanamide]
Recombinant BRD4 BD2
  IC50: 45.1 nM
Recombinant BRD4 BD1
  IC50: 4.9 nM
MDA-MB-231
  IC50: 40 ± 10 nM
